Consider 7 molecules from patent US12570651B2, “Quinazoline-2,4-dione derivatives as PARP inhibitors” (Suzhou Four Health Pharmaceuticals Co., Ltd., priority 2019, dated 2026).

One assay has as its target T1, PARP-1 (Homo sapiens, UniProt P09874).
T1 construct: purchased BioTechne—R&D Systems 4677-096-K
Nature of the assay: PARP/Apoptosis Universal Colorimetric Assay Kit (ELISA), PARP inhibitory activity. The settings on record: for IC50: Elise test methods April 2020, 0.5 U/well PARP-HSA Enzyme, read-out: IC50-values for different PARP-inhibitors, as calculated by ELISA; for IC50, comparison in words: ELISA. The class given is biochemical. How it is done: The inhibitors (13F, 14F, 13I-FL, 13F-FL, 14F-FL, 13I and 14I) were kept at −20° C., dissolved in DMSO at 20 mg/mL.
The PARP/Apoptosis Universal Colorimetric Assay Kit 4677-096-K was purchased from BioTechne—R&D Systems. This ELISA kit detects biotinylated poly (ADP-ribose) deposited by PARP-1 onto immobilized histones in a 96-well format. The addition of Strep-HRP (biotin-binding protein) and a colorimetric HRP substrate yields relative absorbance that correlates with PARP-1 activity. The kit is used for in vitro screening of candidate PARP-1 inhibitors and determination of IC50 values.
The protocol recommended by the provider was followed. A 1/10 serial dilution of the inhibitors (ranging from 500 μM to 0.5 nM, 7 data points in triplicate) was added to the designated wells. Wells incubated with 0.5 U/well of PARP-HSA Enzyme without inhibitor were used as the 100% activity reference point. Data was expressed as % of Maximal Activity and plotted in function of the log of concentration (M)) using Graph Pad Prism 8. IC50 values were determined using a dose-response-inhibition equation.

The subject of assay [1] is FaDu cells. The assay can be described thus: Cell binding by flow cytometry. The class given is cell-based. On the procedure:
(§1) 250 000 cells (FaDu, Cal27 or OE33) in suspension were incubated with 0.5 mL media, 0.5 mL 10 μM unlabeled 14F or 0.5 mL 10 μM Olaparib-analogue. After 30 min incubation at 37° C., the cells were washed once with 0.5 mL media and subsequently incubated with 0.5 mL 0.1 μM 14F-FL for 10 min at 37° C. The cells were then washed thrice with media (including 1×10 min incubation) and resuspended in FACS buffer (PBS+0.5% FBS+EDTA+N3). Finally, cells were analyzed on a flow cytometer (BD Celesta) in the GFP channel (ex 488 nm, em filter 510 nm). Data was analyzed via FlowJo software.

Assay [2] concerns OE33 cells. The assay can be described thus: Cell binding by flow cytometry. The class given is cell-based. How it is done:
as §1

Assay [3] has as its system Cal27 cells. Nature of the assay: Cell binding by flow cytometry. The class given is cell-based. On the procedure: as §1
Assay [4] relates to FaDu cells. Nature of the assay: In vitro cell binding study, confocal microscopy. The format is cell-based. On the procedure: (§2) 40 000 cells (FaDu, OE33, or Cal27) were plated in 24-well plates (Cell imaging plates with glass bottom, Eppendorf), and incubated for 2 days at 37° C. After removal of the medium, either 0.5 mL of media (Cond 1), 0.5 mL of 10 μM unlabeled PARPi (14F) (Cond 2) or 0.5 mL of 10 μM Olaparib (Cond 3) was added to the cells. After 30 minutes of incubation at 37° C., cells were washed with 1 mL of medium. Subsequently, 0.5 mL of 14F-FL at a final concentration of 0.1 μM was added and incubated for 15 min at 37° C. The cells were then washed thrice with 1 ml cold PBS, fixed with 1 mL 4% paraformaldehyde (VWR) for 7-10 minutes and washed again with 1 mL PBS. Finally, 0.5 mL of 1 μg/mL DAPI-staining solution (DAPI ready-made solution, Sigma) was added for at least 10 min to stain the cell nuclei.
(§3) High resolution bright field and fluorescent images of the cells were acquired on a confocal microscope (LSM800, Zeiss) with excitation and emission wavelengths of 405/455 nm for DAPI and 488/525 for BodipyFL (standard conditions). Images were taken with a Plan Apochromat 63×/1.4 oil objective. Images were analyzed with the Software ZenLITE (Zeiss).

Assay [5] relates to OE33 cells. Nature of the assay: In vitro cell binding study, confocal microscopy. The class given is cell-based. How it is done:
as §2, §3

Assay [6] concerns Cal27 cells. The assay can be described thus: In vitro cell binding study, confocal microscopy. The format is cell-based. How it is done: as §2, §3
Assay [7] concerns FaDu cells. The assay can be described thus: In vitro dissociation kinetics, confocal microscopy. The class given is cell-based. How it is done:
40 000 FaDu cells were plated in 24-well plates (Cell imaging plates with glass bottom, Eppendrof), and incubated for 2 days at 37° C. After removal of the medium, 0.5 mL of 14F-FL at a final concentration of 0.1 μM was added and incubated for 15 min at 37° C. The cells were then washed thrice with 1 ml cold PBS, and further incubated for 0 min, 30 min, 1 h, 2 h, 4 h or 24 h in medium at 37° C. After washing once with 1 mL cold PBS, the cells were fixed with 4% paraformaldehyde (VWR) and staining with DAPI as described above.
as §3

The test system of assay [8] is FaDu cells. Nature of the assay: In vitro association kinetics, confocal microscopy. The class given is cell-based. The following applies: 0.1 μM, 37° C. How it is done: 40 000 FaDu cells were plated in 24-well plates (Cell imaging plates with glass bottom, Eppendorf), and incubated for 2 days at 37° C. After removal of the medium, 0.5 mL of 14F-FL at a final concentration of 0.1 μM was added and incubated for 2 min, 10 min, 20 min, 30 min, 45 min or 60 min at 37° C. The cells were then washed thrice with 1 ml cold PBS, fixed with 1 mL 4% paraformaldehyde (VWR) for 7-10 minutes and washed again with 1 mL PBS. Finally, 0.5 mL of 1 μg/mL DAPI-staining solution (DAPI ready-made solution, Sigma) was added for at least 10 min to stain the cell nuclei.
as §3

Where [9] appears, read: 10 μM pretreatment 30 min, then 0.1 μM 14F-FL.
Where [10] appears, read: 0.1 μM 14F-FL, 10 min at 37° C.
The mark [11] stands for this setting: 0.1 μM 15 min, washed, medium at 37° C.
The mark [12] stands for this setting: 0.1 μM 14F-FL, 15 min at 37° C.

T1 sequence (P09874 whole entry): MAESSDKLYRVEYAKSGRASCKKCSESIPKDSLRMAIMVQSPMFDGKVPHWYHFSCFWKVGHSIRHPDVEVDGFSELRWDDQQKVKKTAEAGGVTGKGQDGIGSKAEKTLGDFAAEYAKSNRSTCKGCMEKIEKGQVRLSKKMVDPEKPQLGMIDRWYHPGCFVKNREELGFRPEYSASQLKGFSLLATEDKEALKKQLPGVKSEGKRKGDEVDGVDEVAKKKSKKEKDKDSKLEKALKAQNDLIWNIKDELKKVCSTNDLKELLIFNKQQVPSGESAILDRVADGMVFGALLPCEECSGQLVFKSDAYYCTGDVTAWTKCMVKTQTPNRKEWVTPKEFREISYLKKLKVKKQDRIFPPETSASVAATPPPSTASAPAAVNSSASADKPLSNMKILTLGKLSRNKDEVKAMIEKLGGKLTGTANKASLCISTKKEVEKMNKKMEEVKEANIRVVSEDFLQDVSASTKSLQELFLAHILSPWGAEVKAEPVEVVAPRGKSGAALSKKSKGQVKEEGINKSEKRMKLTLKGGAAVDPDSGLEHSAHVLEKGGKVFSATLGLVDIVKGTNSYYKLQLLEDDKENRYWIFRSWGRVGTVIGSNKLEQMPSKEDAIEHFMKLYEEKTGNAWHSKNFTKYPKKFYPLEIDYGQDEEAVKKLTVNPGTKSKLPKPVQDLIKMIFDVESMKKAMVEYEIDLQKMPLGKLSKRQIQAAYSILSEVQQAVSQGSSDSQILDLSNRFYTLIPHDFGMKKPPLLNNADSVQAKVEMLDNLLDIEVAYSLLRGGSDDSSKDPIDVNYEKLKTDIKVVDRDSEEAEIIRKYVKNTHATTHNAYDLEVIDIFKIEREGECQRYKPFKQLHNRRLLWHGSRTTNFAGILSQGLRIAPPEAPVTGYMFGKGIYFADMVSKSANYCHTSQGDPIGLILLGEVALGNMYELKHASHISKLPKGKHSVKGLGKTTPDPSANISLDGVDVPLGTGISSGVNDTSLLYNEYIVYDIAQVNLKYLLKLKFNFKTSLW

For `O=C(c1cc(Cn2c(=O)[nH]c(=O)c3cccnc32)ccc1F)N1CCN(C(=O)C2CCCC2)CC1` [Compound 13F, 1-(3-(4-(cyclopentanecarbonyl)piperazine-1-carbonyl)-4-fluorobenzyl)pyrido[2,3-d]pyrimidine-2,4(1H,3H)-dione], the IC50 on PARP-1 is 50 to 500 nM.

Consider `CC1=CC(C)=[N+]2C1Cc1ccc(CCC(=O)N3CCN(C(=O)c4cc(Cn5c(=O)[nH]c(=O)c6cccnc65)ccc4F)CC3)n1[B-]2(F)F` (stereo not shown) [Compound 13F-FL, 1-(3-(4-(3-(5,5-difluoro-7,9-dimethyl-5H-5I4,6I4-dipyrrolo[1,2-c:2′,1′-f][1,3,2]diazaborinin-3-yl)propanoyl)piperazine-1-carbonyl)-4-fluorobenzyl)pyrido[2,3-d]pyrimidine-2,4(1H,3H)-dione], for which the IC50 on PARP-1 is 50 to 500 nM.

Consider `O=C(c1cc(Cn2c(=O)[nH]c(=O)c3cccnc32)ccc1I)N1CCN(C(=O)C2CCCC2)CC1` [Compound 13I, 1-(3-(4-(cyclopentanecarbonyl)piperazine-1-carbonyl)-4-iodobenzyl) pyrido [2,3-d]pyrimidine-2,4(1H,3H)-dione], for which the IC50 on PARP-1 is above 500 nM.

In the case of `CC1=CC(C)=[N+]2C1Cc1ccc(CCC(=O)N3CCN(C(=O)c4cc(Cn5c(=O)[nH]c(=O)c6cccnc65)ccc4I)CC3)n1[B-]2(F)F` (stereo not shown) [Compound 13I-FL, 1-(3-(4-(3-(5,5-difluoro-7,9-dimethyl-5H-5I4,6I4-dipyrrolo[1,2-c:2′,1′-f][1,3,2]diazaborinin-3-yl)propanoyl)piperazine-1-carbonyl)-4-iodobenzyl)pyrido[2,3-d]pyrimidine-2,4(1H,3H)-dione], the IC50 on PARP-1 was above 500 nM.

Turning to `O=C(c1cc(Cn2c(=O)[nH]c(=O)c3ccccc32)ncc1F)N1CCN(C(=O)C2CCCC2)CC1` [Compound 14F, 1-((4-(4-(cyclopentanecarbonyl)piperazine-1-carbonyl)-5-fluoropyridin-2-yl)methyl)quinazoline-2,4(1H,3H)-dione], the “14F-FL binding after pretreatment with excess unlabeled compound, flow cytometry” value in the assay with FaDu cells [1] (setting [9]), in the assay on OE33 cells [2] (setting [9]) and in the assay on Cal27 cells [3] (setting [9]) was “decreased the binding” throughout. In addition, the “14F-FL signal after pretreatment with excess of unlabeled analogue” value with FaDu cells [4] (setting [9]), in the assay with OE33 cells [5] (setting [9]) and with Cal27 cells [6] (setting [9]) was “no green fluorescent signal” in each case. Moreover, on PARP-1, the “IC50, comparison in words” value is listed as “Best IC50-values”. On PARP-1, the IC50 is below 50 nM.

With `CC1=CC(C)=[N+]2C1=Cc1ccc(CCC(=O)N3CCN(C(=O)c4cc(Cn5c(=O)[nH]c(=O)c6ccccc65)ncc4F)CC3)n1[B-]2(F)F` [Compound 14F-FL, 1-((4-(4-(3-(5,5-difluoro-7,9-dimethyl-5H-5I4,6I4-dipyrrolo[1,2-c:2′,1′-f][1,3,2]diazaborinin-3-yl)propanoyl)piperazine-1-carbonyl)-5-fluoropyridin-2-yl)methyl)quinazoline-2,4(1H,3H)-dione], the “cell binding, flow cytometry” value in the assay with FaDu cells [1] (setting [10]), in the assay on OE33 cells [2] (setting [10]) and in the assay with Cal27 cells [3] (setting [10]) was “significant binding” each time. The “retention on target after binding” value in the assay with FaDu cells [7] (setting [11]) is recorded as “remains bound to its target for a few hours”. For the same molecule, in the assay on FaDu cells [7] (setting [11]), the “time from which the signal in the nucleus gradually decreases” value lay within 2 to 4 h. For the same molecule, the “signal in the nuclei after 24 h” value with FaDu cells [7] (24 h in medium at 37° C. after washing) is given as “some signal can still be observed”. Further, the “fluorescent signal in the nuclei” value in the assay with FaDu cells [4] (setting [12]), in the assay on OE33 cells [5] (setting [12]) and with Cal27 cells [6] (setting [12]) was “intense green fluorescent signal” each time. Further, the “IC50, comparison in words” value against PARP-1 is “Best IC50-values”. Moreover, the IC50 at PARP-1 is below 50 nM. Further, in the assay with FaDu cells [8], the “incubation time to maximal binding” value is at most 10 min.

As for `O=C(c1cc(Cn2c(=O)[nH]c(=O)c3ccccc32)ncc1I)N1CCN(C(=O)C2CCCC2)CC1` [Compound 14I, 1-((4-(4-(cyclopentanecarbonyl)piperazine-1-carbonyl)-5-iodopyridin-2-yl)methyl)quinazoline-2,4(1H,3H)-dione], the IC50 on PARP-1 was above 500 nM.
